Drawing on EP2604600A1, “Isatin derivatives and their use in therapy” (priority 2011, dated 2013), this text covers MIC for four compounds.

≈ marks a conversion by molar mass, not a printed value.

Holding throughout (experiment): microbe, parasite or virus in culture
Common to all, as to type: cell-based

Experiment [1] concerns ATCC 35830 Ethionamide Resistant. The conditions noted are these: Mycobacterium tuberculosis, ATCC35830, 48 h.
Experiment [2] has as its system ATCC 35822 Isoniazid Resistant. To be noted: Mycobacterium tuberculosis, ATCC35822, 48 h.
Experiment [3] relates to ATCC 35837 Ethambutol Resistant. To be noted: Mycobacterium tuberculosis, ATCC35837, 48 h.
Experiment [4] has as its system ATCC 35821 Para-aminosalicylic Resistant. The conditions noted are these: Mycobacterium tuberculosis, ATCC35821, 48 h.
Experiment [5] deals with ATCC 35820 Streptomycin Resistant. To be noted: Mycobacterium tuberculosis, ATCC35820, 48 h.
In experiment [6] the test system is ATCC 35827 Kanamycin Resistant. To be noted: Mycobacterium tuberculosis, ATCC35827, 48 h.

Take `O=C1Nc2ccc(Cl)cc2C1=NNC(=O)c1ccncc1` [Compound 3a]: the MIC turned out to be 10 µg/mL (≈ 33.3 µM) in experiment [1]; 10 µg/mL (≈ 33.3 µM) in experiment [2]; 1.25 µg/mL (≈ 4.16 µM) in experiment [3]; 25 µg/mL (≈ 83.1 µM) in experiment [4]; 25 µg/mL (≈ 83.1 µM) in experiment [5]; 25 µg/mL (≈ 83.1 µM) in experiment [6].
For `O=C(NN=C1C(=O)N(Cc2ccccc2)c2ccccc21)c1ccc([N+](=O)[O-])o1` [Compound 3g], the MIC in experiment [1] turned out to be 156 µg/mL (≈ 400 µM); in experiment [2], 156 µg/mL (≈ 400 µM); in experiment [3], 0.156 µg/mL (≈ 0.4 µM); in experiment [4], 312 µg/mL (≈ 799 µM); in experiment [5], 78 µg/mL (≈ 200 µM); in experiment [6] it was 156 µg/mL (≈ 400 µM).
As for `O=C1Nc2ccc(OC(F)(F)F)cc2C1=NNC(=O)c1ccc([N+](=O)[O-])o1` [Compound 3e], the MIC in experiment [1] stood at 0.5 µg/mL (≈ 1.3 µM); in experiment [2], 5 µg/mL (≈ 13 µM); in experiment [3], 2.5 µg/mL (≈ 6.51 µM); in experiment [4], 0.5 µg/mL (≈ 1.3 µM); in experiment [5], 25 µg/mL (≈ 65.1 µM); in experiment [6], 5 µg/mL (≈ 13 µM).
`O=C1Nc2ccc([N+](=O)[O-])cc2C1=NNC(=O)c1ccncc1` [Compound 3c]: the MIC came out at 0.5 µg/mL (≈ 1.61 µM) in experiment [1]; 10 µg/mL (≈ 32.1 µM) in experiment [2]; 0.156 µg/mL (≈ 0.501 µM) in experiment [3]; 156 µg/mL (≈ 501 µM) in experiment [4]; 156 µg/mL (≈ 501 µM) in experiment [5]; 312 µg/mL (≈ 1000 µM) in experiment [6].
